Source: paper PMC4384300, “Evaluation of the in vitro trypanocidal activity of methylated flavonoid constituents of Vitex simplicifolia leaves” (BMC Complementary and Alternative Medicine, 2015)
In brackets after ≈: the same amount, converted by molar mass. Where two headings read alike, the source gives them in different places.

Columns and labels:
[1] = system: Trypanosoma brucei rhodesiense STIB 900 bloodstream forms; test: In vitro trypanocidal activity (Alamar Blue assay, 72 h); type: cell-based; conditions: for IC50: Trypanosoma brucei, 72 h, read-out: T.b.rhodesiense IC50; for SI: selectivity index (IC50 of L6 cells/ IC50 of T.b.rhodesiense): L6 cells versus T. b. rhodesiense
Description: Minimum essential medium (50 μl) supplemented according to a standard method, with 2-mercaptoethanol and 15% heat inactivated horse serum was added to each well of a 96-well microtiter plate. Serial three-fold compound dilutions were prepared covering a range from 90 to 0.123 μg/ml. Then 10^4 bloodstream forms of Trypanosoma brucei rhodesiense STIB 900 (a clone of a population isolated in 1982 from a patient in Tanzania) in 50 μl culture medium were added to each well and the plate incubated at 37°C under a 5% CO2 atmosphere for 72 h. Ten microlitres of Alamar Blue (12.5 mg resazurin dissolved in 100 ml distilled water) were then added to each well and incubation continued for a further 2–4 h. The plate was then read in a Spectramax Gemini XS microplate fluorometer (Molecular Devices Cooperation, Sunnyvale, CA, USA) using an excitation wavelength of 536 nm and emission wavelength of 588 nm. Fluorescence development was measured and expressed as percentage of the control. Data were transferred into the graphic programme Softmax Pro (Molecular Devices) which calculated IC50 values. Melarsoprol was used as standard drug.

L6 cells = test: Cytotoxicity in rat skeletal myoblast cell line (L6 cells); type: cell-based
Description: Cytotoxicity was determined using a rat skeletal myoblast cell line (L6 cells). The culture medium was RPMI 1640 supplemented with L-glutamine 2 mM, HEPES 5.95 g/l, NaHCO3 2 g/l and 10% foetal bovine serum. Podophyllotoxin (Sigma-Aldrich) was used as the reference drug. The assay was performed following the antitrypanosomal assay protocol as described above. The IC50 values were calculated from the sigmoidal growth inhibition curves using Softmax Pro software (Molecular Devices Corp.). Tests were done in three independent experiments in duplicate.

[2] = T. b. rhodesiense STIB 900 bloodstream forms, 72 h incubation, Alamar Blue
[3] = rat skeletal myoblast L6 cells, cytotoxicity, read-out: L6 Cells IC50

Molecule | IC50 [1, 2] [µg/mL] | IC50 (L6 cells; [3]) [µg/mL] | further results
2-(3′,4′-dimethoxyphenyl)-7-hydroxychromen-4-one [Compound 7] |  |  | T.b.rhodesiense IC50 [1, 2]: 10.8 µg/mL; L6 Cells IC50 (L6 cells; rat skeletal myoblast L6 cells, cytotoxicity): 1.58 µg/mL
COc1cc(-c2oc3cc(O)cc(O)c3c(=O)c2OC)ccc1O [Compound 2, 2-(5′-methoxyphenyl) 4′,5,7-trihydroxy-3-methoxychromen-4-one] | 12.3 (≈ 37.2 µM) | 6.64 (≈ 20.1 µM) | 
COc1cc2oc(-c3ccc(O)cc3)c(OC)c(=O)c2c(O)c1OC [Compound 3, Penduletin] |  | 14 (≈ 40.7 µM) | T.b.rhodesiense IC50 [1, 2]: 13.8 µg/mL
COc1cc(O)c2c(=O)c(OC)c(-c3ccc(O)cc3)oc2c1 [Compound 4, 2-(4′-hydroxyphenyl)-5-hydroxy 3,7-dimethoxy chromen-4-one] | 19.4 (≈ 61.7 µM) | 28.2 (≈ 89.7 µM) | SI: selectivity index (IC50 of L6 cells/ IC50 of T.b.rhodesiense) [1]: 1.4
O=c1c(O)c(-c2ccc(O)cc2)oc2cc(O)cc(O)c12 [Compound 5, 2-(4-hydroxyphenyl)-3,5,7-trihydroxy chromen-4-one] | 23.7 (≈ 82.8 µM) | 100 (≈ 349 µM) | 
COc1ccc(-c2oc3cc(OC)c(OC)c(O)c3c(=O)c2OC)cc1OC [Compound 6, Artemetin] | 4.7 (≈ 12.1 µM) | 46.2 (≈ 119 µM) | SI: selectivity index (IC50 of L6 cells/ IC50 of T.b.rhodesiense) [1]: 9.8
Nc1nc(N)nc(Nc2ccc([As]3SCC(CO)S3)cc2)n1 (stereo not shown) [Melarsoprol, reference compound] |  |  | IC50 [1]: 0.002 µg/mL
COc1cc([C@@H]2c3cc4c(cc3[C@H](O)[C@H]3COC(=O)[C@H]23)OCO4)cc(OC)c1OC [Podophyllotoxin, reference compound] |  |  | IC50 (L6 cells; Rattus norvegicus, L6, read-out: L6 Cells IC50): 0.005 µg/mL (≈ 0.0121 µM)
